# Test results: patent US9796719B2, “Compounds and pharmaceutical compositions thereof for the treatment of inflammatory disorders” (GALAPAGOS NV, priority 2013, dated 2017)
# Where a name gives a salt, the structure may show the parent alone.
# Molecular target: hENPP2 (UniProtKB/SwissProt Sequence ref Q13822) (Homo sapiens (Human), UniProt Q13822)
# Test: LPC hENPP2 assay (choline release, LPC as substrate)
# Type: biochemical
# Protocol: The principle of the assay consists in quantifying the released choline with an enzymatic method using choline oxidase and peroxidase. Choline oxydation by choline oxydase releases betaine and peroxide. The latter is quantified in presence of HRP that converts the peroxide detection agent TOOS and 4-aminoantipyrine into quinoneimine dye. The appearance of quinoneimine dye is measured spectrophotometrically at 555 nm and is proportional to the amount of choline released by ENPP2. Inhibition of ENPP2 will result in a decrease of the signal.
# The reaction is terminated and choline quantified by the addition of a 25 μL of a mixture containing 0.6 U/mL of choline oxidase, 0.6 U/mL of peroxydase, 1.8 mM TOOS, 1.2 mM amino-antipyrine, 20 mM EGTA (stop-developer solution) diluted in the buffer described above. […] is read on the Envision after an incubation of 30 min at room temperature (Excitation 555 nm, excitation light=70%).
row,Structure (SMILES),IC50 [nM]
1,"CCc1nc2cnc(N3CCNCC3)cn2c1N(C)c1nc(-c2ccc(F)cc2)c(C#N)s1 [Compound 1, 2-((2-ethyl-6-(piperazin-1-yl)imidazo[1,2-a]pyrazin-3-yl)(methyl)amino)-4-(4-fluorophenyl)thiazole-5-carbonitrile]",> 1000
2,"CCc1nc2ccc(N3CCN(C4COC4)CC3)nn2c1N(C)c1nc(-c2ccc(F)cc2)cs1 [Compound 38, N-(2-ethyl-6-(4-(oxetan-3-yl)piperazin-1-yl)imidazo[1,2-b]pyridazin-3-yl)-4-(4-fluorophenyl)-N-methylthiazol-2-amine]",> 1000
3,"CCc1nc2ccc(N3CCN(S(C)(=O)=O)[C@H](COC)C3)nn2c1N(C)c1nc(-c2ccc(F)cc2)cs1 [Compound 62, (S)—N-(2-ethyl-6-(3-(methoxymethyl)-4-(methylsulfonyl)piperazin-1-yl)imidazo[1,2-b]pyridazin-3-yl)-4-(4-fluorophenyl)-N-methylthiazol-2-amine]",> 1000
4,"CCc1nc2ccc(N3CCN4C(=O)COC[C@@H]4C3)nn2c1N(C)c1nc(-c2ccc(F)cc2)cs1 [Compound 66, (S)-8-(2-ethyl-3-((4-(4-fluorophenyl)thiazol-2-yl)(methyl)amino)imidazo[1,2-b]pyridazin-6-yl)hexahydropyrazino[2,1-c][1,4]oxazin-4(1H)-one]",> 1000
5,"CCc1nc2ccc(N3CCC(NC(=O)N4CCCC4)CC3)nn2c1N(C)c1nc(-c2ccc(F)cc2)cs1 [Compound 89, N-(1-(2-ethyl-3-((4-(4-fluorophenyl)thiazol-2-yl)(methyl)amino)imidazo[1,2-b]pyridazin-6-yl)piperidin-4-yl)pyrrolidine-1-carboxamide]",500 to 1000
6,"CCc1nc2ccc(N3CCC(OC=O)C3)nn2c1N(C)c1nc(-c2ccc(F)cc2)cs1 (stereo not shown) [Compound 130, 1-(2-ethyl-3-((4-(4-fluorophenyl)thiazol-2-yl)(methyl)amino)imidazo[1,2-b]pyridazin-6-yl)pyrrolidin-3-yl formate]",> 1000
7,"CCc1nc2ccc(N3CCC(=O)C3)nn2c1N(C)c1nc(-c2ccc(F)cc2)c(Cl)s1 [Compound 132, 1-(3-((5-chloro-4-(4-fluorophenyl)thiazol-2-yl)(methyl)amino)-2-ethylimidazo[1,2-b]pyridazin-6-yl)pyrrolidin-3-one]",> 1000
8,"CCc1nc2ccc(N3CCC(NC(=O)CO)C3)nn2c1N(C)c1nc(-c2ccc(F)cc2)cs1 (stereo not shown) [Compound 136, N-(1-(2-ethyl-3-((4-(4-fluorophenyl)thiazol-2-yl)(methyl)amino)imidazo[1,2-b]pyridazin-6-yl)pyrrolidin-3-yl)-2-hydroxyacetamide]",> 1000
9,"CCc1nc2ccc(N3CCC[C@H]3C(=O)O)nn2c1N(C)c1nc(-c2ccc(F)cc2)cs1 [Compound 138, (S)-1-(2-ethyl-3-((4-(4-fluorophenyl)thiazol-2-yl)(methyl)amino)imidazo[1,2-b]pyridazin-6-yl)pyrrolidine-2-carboxylic acid]",> 1000
10,"CCc1nc2ccc(N3CCC(CO)C3)nn2c1N(C)c1nc(-c2ccc(F)cc2)c(CO)s1 (stereo not shown) [Compound 144, (1-(2-ethyl-3-((4-(4-fluorophenyl)-5-(hydroxymethyl)thiazol-2-yl)(methyl)amino)imidazo[, 2-b]pyridazin-6-yl)pyrrolidin-3-yl)methanol]",500 to 1000
11,"CCc1nc2ccc(N3CCC(N4C[C@@H](C)O[C@@H](C)C4)C3)nn2c1N(C)c1nc(-c2ccc(F)cc2)c(C#N)s1 (stereo partly drawn) [Compound 178, 2-((6-(3-((2S,6R)-2,6-dimethylmorpholino)pyrrolidin-1-yl)-2-ethylimidazo[1,2-b]pyridazin-3-yl)(methyl)amino)-4-(4-fluorophenyl)thiazole-5-carbonitrile]",500 to 1000
12,"CCc1nc2ccc(C3CCNCC3)nn2c1N(C)c1nc(-c2ccc(F)cc2C#N)ns1 [Compound 219, 2-(5-((2-ethyl-6-(piperidin-4-yl)imidazo[1,2-b]pyridazin-3-yl)(methyl)amino)-1,2,4-thiadiazol-3-yl)-5-fluorobenzonitrile]",> 1000
13,"CCc1nc2cnc(N3CCN(CC(=O)N4CC(F)(F)C4)CC3)cn2c1N(C)c1nc(-c2ccc(F)cc2)c(C#N)s1 [Cpd 3, 2-((6-(4-(2-(3,3-difluoroazetidin-1-yl)-2-oxoethyl)piperazin-1-yl)-2-ethylimidazo[1,2-a]pyrazin-3-yl)(methyl)amino)-4-(4-fluorophenyl) thiazole-5-carbonitrile]",> 1000
14,"CCc1nc2cnc(N3CCN(CC(=O)N4CCC4)CC3)cn2c1N(C)c1nc(-c2ccc(F)cc2)cs1 [Cpd 13, 1-(azetidin-1-yl)-2-(4-(2-ethyl-3-((4-(4-fluorophenyl)thiazol-2-yl)(methyl)amino)imidazo[1,2-a]pyrazin-6-yl)piperazin-1-yl)ethanone]",> 1000
15,"CCc1nc2cnc(N3CCNCC3)cn2c1N(C)c1nc(-c2ccc(F)cc2C#N)cs1 [Cpd 15, 2-(2-((2-ethyl-6-(piperazin-1-yl)imidazo[1,2-a]pyrazin-3-yl)(methyl)amino)thiazol-4-yl)-5-fluorobenzonitrile]",> 1000
16,"CCc1nc2cnc(N3CCN(CC(=O)N4CC(O)C4)CC3)cn2c1N(C)c1cccc(-c2ccc(F)cc2C#N)n1 [Cpd 17, 2-(6-((2-ethyl-6-(4-(2-(3-hydroxyazetidin-1-yl)-2-oxoethyl)piperazin-1-yl)imidazo[1,2-a]pyrazin-3-yl)(methyl)amino)pyridin-2-yl)-5-fluorobenzonitrile]",> 1000
17,"CCc1nc2cnc(N3CCN(CC(=O)N4CC(O)C4)CC3)cn2c1N(C)c1nccc(-c2ccc(F)cc2C#N)n1 [Cpd 18, 2-(2-((2-ethyl-6-(4-(2-(3-hydroxyazetidin-1-yl)-2-oxoethyl)piperazin-1-yl)imidazo[1,2-a]pyrazin-3-yl)(methyl)amino)pyrimidin-4-yl)-5-fluorobenzonitrile]",> 1000
18,"CCc1nc2cnc(C3=CCN(S(C)(=O)=O)CC3)cn2c1N(C)c1nc(-c2ccc(F)cc2)c(C#N)s1 [Cpd 20, 2-((2-ethyl-6-(1-(methylsulfonyl)-1,2,3,6-tetrahydropyridin-4-yl)imidazo[1,2-a]pyrazin-3-yl)(methyl)amino)-4-(4-fluorophenyl) thiazole-5-carbonitrile]",> 1000
19,"CCc1nc2ccc(N3CCN(CC(=O)N4CCCC4C)CC3)nn2c1N(C)c1nc(-c2ccc(F)cc2)cs1 (stereo not shown) [Cpd 28, 2-(4-(2-ethyl-3-((4-(4-fluorophenyl)thiazol-2-yl)(methyl)amino)imidazo[1,2-b]pyridazin-6-yl)piperazin-1-yl)-1-(2-methylpyrrolidin-1-yl)ethanone]",100 to 500
20,CCc1nc2ccc(N3CCN(CC(=O)NC)CC3)nn2c1N(C)c1nc(-c2ccc(F)cc2)cs1 [Cpd 30],500 to 1000
21,"CCc1nc2ccc(N3CCN(CC(=O)N4CCC(F)(F)C4)CC3)nn2c1N(C)c1nc(-c2ccc(F)cc2)cs1 [Cpd 31, 1-(3,3-difluoropyrrolidin-l-yl)-2-(4-(2-ethyl-3-((4-(4-fluorophenyl)thiazol-2-yl)(methyl)amino)imidazo[1,2-b]pyridazin-6-yl)piperazin-l-yl)ethanone]",100 to 500
22,"CCc1nc2ccc(N3CCN(CC(=O)N4C(C)CCC4C)CC3)nn2c1N(C)c1nc(-c2ccc(F)cc2)cs1 (stereo not drawn) [Cpd 32, 1-(2,5-dimethylpyrrolidin-l-yl)-2-(4-(2-ethyl-3-((4-(4-fluorophenyl)thiazol-2-yl)(methyl)amino)imidazo[1,2-b]pyridazin-6-yl)piperazin-1-yl)ethanone]",> 1000
23,"CCc1nc2ccc(N3CCN(CC(=O)NCCO)CC3)nn2c1N(C)c1nc(-c2ccc(F)cc2)cs1 [Cpd 35, 2-(4-(2-ethyl-3-((4-(4-fluorophenyl)thiazol-2-yl)(methyl)amino)imidazo[1,2-b]pyridazin-6-yl)piperazin-1-yl)-N-(2-hydroxyethyl) acetamide]",> 1000
24,"CCc1nc2ccc(N3CCN(CC(=O)N4CCC4)CC3)nn2c1N(C)c1nc(-c2ccc(F)cc2)cs1 [Cpd 36, 1-(azetidin-1-yl)-2-(4-(2-ethyl-3-((4-(4-fluorophenyl)thiazol-2-yl)(methyl)amino)imidazo[1,2-b]pyridazin-6-yl)piperazin-1-yl)ethanone]",100 to 500
25,"CCc1nc2ccc(N3CCN(CC(=O)N(C)C(C)C)CC3)nn2c1N(C)c1nc(-c2ccc(F)cc2)cs1 [Cpd 37, 2-(4-(2-ethyl-3-((4-(4-fluorophenyl)thiazol-2-yl)(methyl)amino)imidazo[1,2-b]pyridazin-6-yl)piperazin-1-yl)-N-isopropyl-N-methylacetamide]",100 to 500
26,"CCc1nc2ccc(N3CCN(C4CCOCC4)CC3)nn2c1N(C)c1nc(-c2ccc(F)cc2)cs1 [Cpd 39, N-(2-ethyl-6-(4-(tetrahydro-2H-pyran-4-yl)piperazin-1-yl)imidazo[1,2-b]pyridazin-3-yl)-4-(4-fluorophenyl)-N-methylthiazol-2-amine]",> 1000
27,"CCc1nc2ccc(N3CCN(CC4CNC(=O)O4)CC3)nn2c1N(C)c1nc(-c2ccc(F)cc2)c(CO)s1 (stereo not shown) [Cpd 41, 5-((4-(2-ethyl-3-((4-(4-fluorophenyl)-5-(hydroxymethyl)thiazol-2-yl)(methyl)amino)imidazo[1,2-b]pyridazin-6-yl)piperazin-1-yl)methyl) oxazolidin-2-one]",500 to 1000
28,"CCc1nc2ccc(N3CCN(CCCO)CC3)nn2c1N(C)c1nc(-c2ccc(F)cc2)c(CO)s1 [Cpd 50, 3-(4-(2-ethyl-3-((4-(4-fluorophenyl)-5-(hydroxymethyl)thiazol-2-yl)(methyl)amino)imidazo[1,2-b]pyridazin-6-yl)piperazin-1-yl)propan-1-ol]",> 1000
